By IC50 is commonly meant the concentration that gives 50% inhibition.

A value given as a limit tells only on which side of the number the result lay.

What all share (assay type): cell-based, mouse (female Balb/c)
Experiment [1] deals with IL-12p70 (IL-12p35/p40 complex). The experiment in a line: Cytokine inhibiting action using mouse peritoneal macrophages: IL-12p70 production (ELISA). The conditions noted are these: Peritoneal macrophage, 100 ng/mL mouse interferon-γ + 0.05% (v/v) SAC, incubated overnight, 50% production inhibition concentration. Here is the method: (§1) 1 mL of a 3% (w/v) thioglycolate solution was intraperitoneally administered to a mouse (female Balb/c). 5 or 6 days later, the peritoneal cells of the mouse were collected, and the adherent cells were used for evaluation. 100 ng/mL of mouse interferon-γ, a 0.05% (v/v) suspension of killed Staphylococcus aureus Cowan I strain (SAC) and a compound of the present invention were added thereto and incubated overnight. After the incubation, the survival rate was measured, and each of IL-12p70 (IL-12p35/p40 complex) and TNF-α was quantified by ELISA using the collected culture supernatant to calculate the 50% production inhibition concentration (IC50) (refer to Table 1; meanwhile, the blanks in the table indicate unmeasured).
In general terms: In an ELISA, binding on a coated surface is turned into a signal by an enzyme label.

Experiment [2] has the same test system. The experiment is described as follows: Cytokine inhibiting action using mouse whole blood: IL-12p70 production (ELISA). Particulars: mouse whole blood (EDTA), 200 ng/mL mouse interferon-γ + 1.25% (v/v) SAC, incubated overnight; 50% production inhibition concentration. Here is the method:
The blood (EDTA addition) was collected from a mouse (female Balb/c) and used for evaluation. 200 ng/mL of mouse interferon-γ, a 1.25% (v/v) suspension of killed Staphylococcus aureus Cowan I strain (SAC) and a compound of the present invention were added to a cell culture medium, diluted to become a quantity equal to the blood and incubated overnight.

A further experiment relates to TNF-α. The experiment in a line: Cytokine inhibiting action using mouse peritoneal macrophages: TNF-α production (ELISA). The conditions noted are these: Peritoneal macrophage, 100 ng/mL mouse interferon-γ + 0.05% (v/v) SAC, incubated overnight, 50% production inhibition concentration. Here is the method:
as §1

Take `Cc1ccc(/C=N/Nc2cc(N3CCOCC3)c3nc(-c4ccncc4)cn3n2)cc1` [Compound 25, N-(4-methyl-benzylidene)-N′-(8-morpholin-4-yl-2-pyridin-4-yl-imidazo[1,2-b]pyridazin-6-yl)-hydrazine]: the IC50 worked out at 0.044 µM in experiment [1] and 0.063 µM in experiment [2].
As for `C(=N\Nc1cc(N2CCOCC2)c2nc(-c3ccncc3)cn2n1)/c1coc2ccccc12` [Compound 9, N-benzofuran-3-yl-methylidene-N′-(8-morpholin-4-yl-2-pyridin-4-yl-imidazo[1,2-b]pyridazin-6-v)-hydrazine], the IC50 in experiment [1] amounted to 0.076 µM; in experiment [2] it was 0.89 µM.
For the compound `C(=N\Nc1cc(N2CCOCC2)c2nc(-c3ccncc3)cn2n1)/c1cc2ccccc2[nH]1` [Compound 21, N-(1H-indol-2-ylmethylene)-N-(8-morpholin-4-yl-2-pyridin-4-yl-imidazo[1,2-b]pyridazin-6-yl)-hydrazine], the IC50 was found to be 0.016 µM in experiment [1] and 0.34 µM in experiment [2].
In the case of `Cc1cccc(/C=N/Nc2cc(N3CCOCC3)c3nc(-c4ccc(-c5ccccn5)s4)cn3n2)c1` [Compound 8, N-(3-methyl-benzylidene)-N′-[8-morpholin-4-yl-2-(5-pyridin-2-yl-thiophen-2-yl)-imidazo[1,2-b]pyridazin-6-yl]-hydrazine], the figures for the IC50 in experiment [1] and in experiment [2] were 0.015 µM and 1.5 µM, respectively.
For `C(=N\Nc1cc(N2CCOCC2)c2nc(-c3ccncc3)cn2n1)/c1ccc2occc2c1` [Compound 20, N-benzofuran-5-ylmethylene-N′-(8-morpholin-4-yl-2-pyridin-4-yl-imidazo[1,2-b]pyridazin-6-yl)-hydrazine], in that order: 0.0094 µM and 0.15 µM.
Turning to `Cc1cccc(/C=N/Nc2cc(N3CCOCC3)c3nc(-c4cn[nH]c4)cn3n2)c1` [Compound 29, N-(3-methyl-benzylidene)-N′-{8-morpholin-4-yl-2-(1H-pyrazol-4-yl)-imidazo[1,2-b]pyridazin-6-yl}-hydrazine], the figures for the IC50 in experiment [1] and in experiment [2] were 0.0011 µM and 1.4 µM, respectively.
As for `Cc1ccccc1/C=N/Nc1cc(N2CCOCC2)c2nc(-c3ccncc3)cn2n1` [Compound 28, N-(2-methyl-benzylidene)-N′-(8-morpholin-4-yl-2-pyridin-4-yl-imidazo[1,2-b]pyridazin-6-yl)-hydrazine], the IC50 in experiment [1] came out at 0.076 µM; in experiment [2], 0.29 µM.
The corresponding values for `CCc1cccc(/C=N/Nc2cc(N3CCOCC3)c3nc(-c4ccncc4)cn3n2)c1` [Compound 10, N-(3-ethyl-benzylidene)-N′-(8-morpholin-4-yl-2-pyridin-4-yl-imidazo[1,2-b]pyridazin-6-yl)-hydrazine] are 0.0081 µM and 0.18 µM.
Consider `CN1CCc2ccc(/C=N/Nc3cc(N4CCOCC4)c4nc(-c5ccncc5)cn4n3)cc21` [Compound 27, N-(N-methylindoline-6-ylmethylene)-N-(8-morpholin-4-yl-2-pyridin-4-yl-imidazo[1,2-b]pyridazin-6-yl)-hydrazine], for which the IC50 was found to be 0.044 µM in experiment [1] and 1.2 µM in experiment [2].
With `Cc1cccc(/C=N/Nc2cc(N3CCOCC3)c3nc(-c4ccncc4)cn3n2)c1` [Compound 4, N-(3-methyl-benzylidene)-N′-(8-morpholin-4-yl-2-pyridin-4-yl-imidazo[1,2-b]pyridazin-6-yl)-hydrazine], the values for the IC50 (in the experiment with TNF-α; in experiment [1]; in experiment [2]) were greater than 10 µM, 0.0036 µM and 0.47 µM, respectively.
With `FC(F)c1cccc(/C=N/Nc2cc(N3CCOCC3)c3nc(-c4ccncc4)cn3n2)c1` [Compound 22, N-(3-difluoromethyl-benzylidene)-N-(8-morpholin-4-yl-2-pyridin-4-yl-imidazo[1,2-b]pyridazin-6-yl)-hydrazine], the IC50 amounted to 0.04 µM in experiment [1] and 0.11 µM in experiment [2].
Turning to `C(=N\Nc1cc(N2CCOCC2)c2nc(-c3ccncc3)cn2n1)/c1csc2ccccc12` [Compound 11, N-benzo[b]thiophen-3-yl-methylidene-N′-(8-morpholin-4-yl-2-pyridin-4-yl-imidazo[1,2-b]pyridazin-6-yl)-hydrazine], the IC50 in experiment [1] turned out to be 0.03 µM; in experiment [2] it was 1 µM.
For `Cc1ccc(-c2cn3nc(N/N=C/c4c[nH]c5ccccc45)cc(N4CCOCC4)c3n2)cn1` [Compound 30, N-(1H-indol-3-yl-methylene)-N′-[2-(6-methyl-pyridin-3-yl)-8-morpholin-4-yl-imidazo[1,2-b]pyridazin-6-yl]-hydrazine], in that order: 0.0052 µM and 1.9 µM.
As for `FCc1ccc(/C=N/Nc2cc(N3CCOCC3)c3nc(-c4ccncc4)cn3n2)cc1` [Compound 26, N-(4-fluoromethyl-benzylidene)-N′-(8-morpholin-4-yl-2-pyridin-4-yl-imidazo[1,2-b]pyridazin-6-yl)-hydrazine], the IC50 is 0.046 µM in experiment [1] and 0.27 µM in experiment [2].
In the case of `CC(C)c1cccc(/C=N/Nc2cc(N3CCOCC3)c3nc(-c4ccncc4)cn3n2)c1` [Compound 14, N-(3-isopropyl-benzylidene)-N′-(8-morpholin-4-yl-2-pyridin-4-yl-imidazo[1,2-b]pyridazin-6-yl)-hydrazine], the IC50 in experiment [1] came to 0.13 µM.
Consider `Cc1cccc(/C=N/Nc2cc(N3CCOCC3)c3nc(-c4cccnc4)cn3n2)c1` [Compound 3, N-(3-methyl-benzylidene)-N′-(8-morpholin-4-yl-2-pyridin-3-yl-imidazo[1,2-b]pyridazin-6-yl)-hydrazine], for which the IC50 in the experiment with TNF-α is greater than 10 µM; in experiment [1], 0.0087 µM; in experiment [2] it was 3 µM.
On to `CN(C)c1cccc(/C=N/Nc2cc(N3CCOCC3)c3nc(-c4ccncc4)cn3n2)c1` [Compound 23, N-(3-dimethylamino-benzylidene)-N-(8-morpholin-4-yl-2-pyridin-4-yl-imidazo[1,2-b]pyridazin-6-yl)-hydrazine], for which the IC50 amounted to 0.063 µM in experiment [1] and 0.55 µM in experiment [2].

Source of the values: US20120323002A1, “IMIDAZOPYRIDAZINE COMPOUNDS” (AJINOMOTO CO., INC., priority 2009, published 2012).
